#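 GI50 is the concentration that inhibits growth by half. The concentration for full growth arrest is given as TGI.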
# What was measured:
# Test in all cases: NCI tumour cell line growth inhibition, 384-well format
# NCI/ADR-RES ovarian = system: NCI/ADR-RES ovarian
# EKVX NSCLC = system: EKVX NSCLC
# DU-145 prostate = system: DU-145 prostate
# MDA-MB-468 breast = system: MDA-MB-468 breast
# MCF7 breast = system: MCF7 breast
# MOLT-4 leukemia = system: MOLT-4 leukemia
# OVCAR-5 ovarian = system: OVCAR-5 ovarian
# A549 NSCLC = system: A549 NSCLC
# HS 578T breast = system: HS 578T breast
# IGROV1 ovarian = system: IGROV1 ovarian
# SK-MEL-28 melanoma = system: SK-MEL-28 melanoma
# CCRF-CEM leukemia = system: CCRF-CEM leukemia
# MDA-MB-435 melanoma = system: MDA-MB-435 melanoma
# NCI-H322M lung = system: NCI-H322M lung
# PC-3 prostate = system: PC-3 prostate
# SNB-19 CNS = system: SNB-19 CNS
# UACC-257 melanoma = system: UACC-257 melanoma
# MDA-MB-231 breast = system: MDA-MB-231 breast
# BT-549 breast = system: BT-549 breast
# SN12C renal = system: SN12C renal
# HOP-62 NSCLC = system: HOP-62 NSCLC
# NCI-H522 lung = system: NCI-H522 lung
# RXF 393 renal = system: RXF 393 renal
# A498 renal = system: A498 renal
# HCT-15 colon = system: HCT-15 colon
# COLO 205 colon = system: COLO 205 colon
# SF-268 CNS = system: SF-268 CNS
# M14 melanoma = system: M14 melanoma
# SNB-75 CNS = system: SNB-75 CNS
# HCC-2998 colon = system: HCC-2998 colon
# T-47D breast = system: T-47D breast
# SF-539 CNS = system: SF-539 CNS
# SK-MEL-5 melanoma = system: SK-MEL-5 melanoma
# U251 glioblastoma = system: U251 glioblastoma
# HL-60(TB) leukemia = system: HL-60(TB) leukemia
# SK-MEL-2 melanoma = system: SK-MEL-2 melanoma
# HT29 colon = system: HT29 colon
# SF-295 CNS = system: SF-295 CNS
# OVCAR-8 ovarian = system: OVCAR-8 ovarian
# UACC-62 melanoma = system: UACC-62 melanoma
# CAKI-1 renal = system: CAKI-1 renal
# 786-0 renal = system: 786-0 renal
# NCI-H23 lung = system: NCI-H23 lung
# NCI-H460 NSCLC = system: NCI-H460 NSCLC
# RPMI-8226 leukemia = system: RPMI-8226 leukemia
# NCI-H226 lung = system: NCI-H226 lung
# SK-OV-3 ovarian = system: SK-OV-3 ovarian
# HOP-92 NSCLC = system: HOP-92 NSCLC
# ACHN renal = system: ACHN renal
# TK-10 renal = system: TK-10 renal
# SW-620 colon = system: SW-620 colon
# MALME-3M melanoma = system: MALME-3M melanoma
# SR leukemia = system: SR leukemia
# OVCAR-3 ovarian = system: OVCAR-3 ovarian
# KM12 colon = system: KM12 colon
# OVCAR-4 ovarian = system: OVCAR-4 ovarian
smiles,measurement,setting,value
O=c1cc(N2CCOCC2)oc2c(-c3ccccc3)cccc12,GI50,NCI/ADR-RES ovarian,5.08 µM
same,TGI,NCI/ADR-RES ovarian,21.8 µM
same,GI50,EKVX NSCLC,4.43 µM
same,TGI,EKVX NSCLC,26.7 µM
same,GI50,DU-145 prostate,8.8 µM
same,TGI,DU-145 prostate,55.5 µM
same,GI50,MDA-MB-468 breast,2.24 µM
same,TGI,MDA-MB-468 breast,7.78 µM
same,GI50,MCF7 breast,3 µM
same,TGI,MCF7 breast,25.6 µM
same,GI50,MOLT-4 leukemia,3.86 µM
same,TGI,MOLT-4 leukemia,15.2 µM
same,GI50,OVCAR-5 ovarian,4.02 µM
same,TGI,OVCAR-5 ovarian,39.1 µM
same,GI50,A549 NSCLC,5.87 µM
same,TGI,A549 NSCLC,27.9 µM
same,GI50,HS 578T breast,2.78 µM
same,TGI,HS 578T breast,9.32 µM
same,GI50,IGROV1 ovarian,2.54 µM
same,TGI,IGROV1 ovarian,7.63 µM
same,GI50,SK-MEL-28 melanoma,5.44 µM
same,TGI,SK-MEL-28 melanoma,30.7 µM
same,GI50,CCRF-CEM leukemia,4.08 µM
same,TGI,CCRF-CEM leukemia,16.1 µM
same,GI50,MDA-MB-435 melanoma,10.3 µM
same,TGI,MDA-MB-435 melanoma,32.1 µM
same,GI50,NCI-H322M lung,12.7 µM
same,TGI,NCI-H322M lung,73.2 µM
same,GI50,PC-3 prostate,3.18 µM
same,TGI,PC-3 prostate,18.3 µM
same,GI50,SNB-19 CNS,23.7 µM
same,TGI,SNB-19 CNS,> 100 µM
same,GI50,UACC-257 melanoma,16.9 µM
same,TGI,UACC-257 melanoma,51.3 µM
same,GI50,MDA-MB-231 breast,4.13 µM
same,TGI,MDA-MB-231 breast,45.8 µM
same,GI50,BT-549 breast,2.61 µM
same,TGI,BT-549 breast,14.4 µM
same,GI50,SN12C renal,8.03 µM
same,TGI,SN12C renal,97.5 µM
same,GI50,HOP-62 NSCLC,5.17 µM
same,TGI,HOP-62 NSCLC,32.8 µM
same,GI50,NCI-H522 lung,2.44 µM
same,TGI,NCI-H522 lung,10.9 µM
same,GI50,RXF 393 renal,2.94 µM
same,TGI,RXF 393 renal,16.6 µM
same,GI50,A498 renal,1.86 µM
same,TGI,A498 renal,8.98 µM
same,GI50,HCT-15 colon,6.35 µM
same,TGI,HCT-15 colon,90.2 µM
same,GI50,COLO 205 colon,10.1 µM
same,TGI,COLO 205 colon,22.6 µM
same,GI50,SF-268 CNS,5.91 µM
same,TGI,SF-268 CNS,28.1 µM
same,GI50,M14 melanoma,4.81 µM
same,TGI,M14 melanoma,29 µM
same,GI50,SNB-75 CNS,1.27 µM
same,TGI,SNB-75 CNS,12.2 µM
same,GI50,HCC-2998 colon,12.3 µM
same,TGI,HCC-2998 colon,33 µM
same,GI50,T-47D breast,3.6 µM
same,TGI,T-47D breast,23.4 µM
same,GI50,SF-539 CNS,10.1 µM
same,TGI,SF-539 CNS,37 µM
same,GI50,SK-MEL-5 melanoma,10.8 µM
same,TGI,SK-MEL-5 melanoma,23.5 µM
same,GI50,U251 glioblastoma,16.4 µM
same,TGI,U251 glioblastoma,58.7 µM
same,GI50,HL-60(TB) leukemia,2.6 µM
same,TGI,HL-60(TB) leukemia,12.6 µM
same,GI50,SK-MEL-2 melanoma,20.1 µM
same,TGI,SK-MEL-2 melanoma,38.9 µM
same,GI50,HT29 colon,6.69 µM
same,TGI,HT29 colon,28.7 µM
same,GI50,SF-295 CNS,17.8 µM
same,TGI,SF-295 CNS,> 100 µM
same,GI50,OVCAR-8 ovarian,4.9 µM
same,TGI,OVCAR-8 ovarian,32.1 µM
same,GI50,UACC-62 melanoma,8.87 µM
same,TGI,UACC-62 melanoma,23.3 µM
same,GI50,CAKI-1 renal,1.89 µM
same,TGI,CAKI-1 renal,9.03 µM
same,GI50,786-0 renal,7.17 µM
same,TGI,786-0 renal,93.5 µM
same,GI50,NCI-H23 lung,8.85 µM
same,TGI,NCI-H23 lung,32.4 µM
same,GI50,NCI-H460 NSCLC,5.91 µM
same,TGI,NCI-H460 NSCLC,66.3 µM
same,GI50,RPMI-8226 leukemia,2.46 µM
same,TGI,RPMI-8226 leukemia,8.77 µM
same,GI50,NCI-H226 lung,3.45 µM
same,TGI,NCI-H226 lung,10.9 µM
same,GI50,SK-OV-3 ovarian,3.64 µM
same,TGI,SK-OV-3 ovarian,19.7 µM
same,GI50,HOP-92 NSCLC,4.79 µM
same,TGI,HOP-92 NSCLC,43.2 µM
same,GI50,ACHN renal,7.85 µM
same,TGI,ACHN renal,26.8 µM
same,GI50,TK-10 renal,2.79 µM
same,TGI,TK-10 renal,15.4 µM
same,GI50,SW-620 colon,18.9 µM
same,TGI,SW-620 colon,> 100 µM
same,GI50,MALME-3M melanoma,2.12 µM
same,TGI,MALME-3M melanoma,8.78 µM
same,GI50,SR leukemia,2.2 µM
same,TGI,SR leukemia,5.98 µM
same,GI50,OVCAR-3 ovarian,6.36 µM
same,TGI,OVCAR-3 ovarian,27.9 µM
same,GI50,KM12 colon,14 µM
same,TGI,KM12 colon,81.7 µM
same,GI50,OVCAR-4 ovarian,1.76 µM
same,TGI,OVCAR-4 ovarian,9.3 µM

# From PubChem BioAssay (NCI)
